Assay results as given in patent US20050042308A1, “Pharmaceutical composition having cholagogic and litholytic effect and its preparation method” (priority 2001, published 2005).
Marks after values point to notes of the source that are not given here.

Experiments:
[1] = tested on: gallbladder muscle stripe in vitro; experiment: Gallbladder smooth muscle contraction caused by acetylcholine; parameters: species or system guinea pig
Protocol: Krebs liquid culture plate, anatomize longitudinally to get 2 pieces of muscle stripe of gallbladder with 10 mm length and […] width. Place the muscle stripe into 37° C. constant temperature Mcrruary bath with Kmbs solution (20 ml), the lower end is fixed on the hook at the bottom of the bath, the upper end is connected to the energy transducer, adjust the oxygen flow gas bubble to tiny and uniform flow, the energy transducer is connected to physiological recorder with prepositive amplifier. Every time after adding test solution observes for more than 3 minutes. When reaching the biggest effect, timely rinse the bath with flushing solution three times with 15 minutes break. After the contraction curve becomes balanced, to make another experiment. […] Krebs solution should be prepared with double-distilled water). After adding acetylcholine, record the contraction curve of gallbladder muscle. From the contraction curve, we can see the amplitude of contraction curve rise. After contraction curve reaches peak-balance, add different concentration LDRS solution. After adding drug solution, the amplitude of contraction curve of gallbladder muscle stripe descends. Record the altitude of amplitude of every phase. The statistic method is below: before drug administration, from the upper and lower limit point of the amplitude contraction curve of gallbladder muscle stripe to respectively line a straight line parallel to the transverse coordinate axis, measure the altitude between the two parallel line as the normal amplitude (The lower line before drug administration is used as basal line). After contraction curve is stable, adding different concentration Ach solution, we can see the amplitude of contraction curve of gallbladder muscle stripe rise, through the peak of amplitude to line a straight line parallel to basal line and measure the altitude between the two parallel line as amplitude of Ach. After curve is stable, add different concentration LDRS stock solution and through the lowest point of amplitude to line parallel to basal line, measure the altitude between the basal line and the lowest line.

fever of the rat = experiment: Fever of the rat caused by 2, 4-dinitrophenol; type: in vivo; details: Aminopyrine 80(mg), Eulektrol 0.15 ml/kg
Protocol: Get […] healthy male rats with 1 80˜220 g body weight, randomly separate them into 6 groups according to the body weight with 8 rats in each group. The rats in the 1st group are forced to take 0.5% CMC 10 ml/kg. The rats in the 2nd group are forced to take aminopyrine […]. The rats in 3rd group are forced to take Eulektrol 0.15 ml /kg. The rats in the 4th, 5th, 6th are respectively forced to take LDRS 0.077 ml, 0.154 ml, […]. 15 minutes later after drug administration SC 25 mg/ml 2,4-dinitrophenol in the middle of shoulder and back, then measure the anal temperature in 0 hour before drug administration, 0.25 hours, 0.5 hours, 1 hours, 2 hours, 4 hours after drug administration.

[2] = tested on: bile secretion of the rat; experiment: Cholagogue experiment in rat (bile efflux coefficient); type: in vivo; details: Eulektrol 0.150 ml/kg; for bile efflux coefficient before 1 hour: before drug administration, Cholanic acid 100 mg (pure substance), Dehydrogenized Cholanic acid 100 mg (pure substance) groups; for (%) increase of bile efflux coefficient compared with control group, after 1 hour / (%) increase of bile efflux coefficient compared with control group, after 2 hours / (%) increase of bile efflux coefficient compared with control group, after 3 hours / (%) increase of bile efflux coefficient compared with control group, after 4 hours / bile efflux coefficient after 1 hour / bile efflux coefficient after 2 hours / bile efflux coefficient after 3 hours / bile efflux coefficient after 4 hours: into duodenum, Cholanic acid 100 mg, Dehydrogenized Cholanic acid 100 mg (pure substance)
Protocol: After grouping, the experimental rats are fasting for 16 hours before experiment; anesthetize these rats through ip ethyl carbamate (also named Urethane). After anesthesia, enlace the four limbs; incise the abdomen to find the pylorus of the stomach. Along the pylorus, find common bile duct. Use little forceps to deliminate the surface envelope and reveal the common bile duct, ligate the lower extremity, carefully shear a little ventage, insert plastic duct with external diameter 1 mm into the common bile duct proximal to the liver to drain the bile. After bile drainage volume is stable, record the bile collection volume every 0.5 hour, for two times.

bilirubin in bile = experiment: The measure of bilirubin of bile; type: in vivo; details: cholanic acid 0.1(g), Eulektrol 0.15(g), Dehydrogenized cholanic acid 0.1(g)
cholelithiasis patients = details: cited from earlier work
[3] = tested on: auricular swollen of mouse caused by dimethylbenzene; experiment: Auricular inflammation of mouse caused by dimethylbenzene; type: in vivo; details: Eulektrol 0.15 ml/kg; Indothemacin 30 (mg)
granuloma of rat = experiment: Granuloma of rat caused by agar; type: in vivo; details: Prednisone 30 (mg)
Source text: Thereinto, the inhibition effect of moderates high dose group is compared with control group, P<0.05, P<0.01 respectively, showing significant inhibition effect.

[4] = tested on: ankle swollen of rat caused by carragheen; experiment: Ankle swollen of the rat caused by carragheen; type: in vivo; details: Eulektrol 0.15 ml/kg, Prednisone acetate 30(mg)
[5] = series with 8 muscle stripes, Ach 10^−4 ml alone, or LDRS (printed 10^−2 ml) added after Ach
[6] = series with 13 muscle stripes, Ach 10^−4 ml alone, or LDRS 10^−2 ml added after Ach

SMILES | bile efflux coefficient before 1 hour [2] | (%) increase of bile efflux coefficient compared with control group, after 1 hour [2] [%] | (%) increase of bile efflux coefficient compared with control group, after 2 hours [2] [%] | (%) increase of bile efflux coefficient compared with control group, after 3 hours [2] [%] | (%) increase of bile efflux coefficient compared with control group, after 4 hours [2] [%] | bile efflux coefficient after 1 hour [2] | bile efflux coefficient after 2 hours [2] | bile efflux coefficient after 3 hours [2] | bile efflux coefficient after 4 hours [2] | D-bil in bile (bilirubin in bile; 1 h) [mmol/L] | F-bil in bile (bilirubin in bile; 1 h) [mmol/L] | T-BIL in bile (bilirubin in bile; 1 h) [mmol/L] | D-bil in bile (bilirubin in bile; 2 h) [mmol/L] | F-bil in bile (bilirubin in bile; 2 h) [mmol/L] | T-BIL in bile (bilirubin in bile; 2 h) [mmol/L] | D-bil in bile (bilirubin in bile; 3 h) [mmol/L] | F-bil in bile (bilirubin in bile; 3 h) [mmol/L] | T-BIL in bile (bilirubin in bile; 3 h) [mmol/L] | D-bil in bile (bilirubin in bile; 4 h) [mmol/L] | F-bil in bile (bilirubin in bile; 4 h) [mmol/L] | other results
CC(=O)OCC[N+](C)(C)C [Ach, acetylcholine] |  |  |  |  |  |  |  |  |  |  |  |  |  |  |  |  |  |  |  |  | gallbladder contraction amplitude [1, 5]: 32.73 ± 6.90 mm; variation rate of amplitude (normal value = 100.0) [1, 5]: 654.6%; gallbladder contraction amplitude [1, 6]: 35.2 ± 6.84 mm; variation rate of amplitude (normal value = 100.0) [1, 6]: 541.5%
Cc1c(N(C)C)c(=O)n(-c2ccccc2)n1C [Aminopyrine, aminopyrine] |  |  |  |  |  |  |  |  |  |  |  |  |  |  |  |  |  |  |  |  | the body temperature variation after drug administration (fever of the rat; 0.25 h): −0.21 ± 0.52 °C; the body temperature variation after drug administration (fever of the rat; 0.5 h): −0.05 ± 0.81 °C; the body temperature variation after drug administration (fever of the rat; 1 h): 0.03 ± 0.79 °C; the body temperature variation after drug administration (fever of the rat; 2 h): 0.49 ± 0.47 °C; the body temperature variation after drug administration (fever of the rat; 4 h): 0.30 ± 0.67 °C
C[C@H](CCC(=O)O)[C@H]1CC[C@H]2[C@@H]3CCC4CCCC[C@]4(C)[C@H]3CC[C@]12C (some centres unmarked) [Cholanic acid, cholanic acid] | 0.116 ± 0.04 ml(bile)/100 g · bw | 6.4 | 26.8 | 123.6 | 45.1 | 0.166 ± 0.04 ml(bile)/100 g · bw | 0.189 ± 0.05 ml(bile)/100 g · bw | 0.246 ± 0.04 ml(bile)/100 g · bw | 0.164 ± 0.04 ml(bile)/100 g · bw | 67.3 ± 25.4 | 26.7 ± 20.1 | 94.1 ± 37.9 | 60.8 ± 31.9 | 16.9 ± 12.8 | 77.7 ± 38.9 | 55.3 ± 18.2 | 27.2 ± 13.9 | 82.5 ± 29.0 | 53.0 ± 31.6 | 28.3 ± 10.6 | T-BIL in bile (bilirubin in bile; 4 h): 81.3 ± 29.8 mmol/L; efficacy of the therapeutics (reducing the gallstone size, dissolving the gallstone or decreasing the gallstone) (cholelithiasis patients; clinical case report): about 50%; patients with SGOT increase (cholelithiasis patients; treatment of the cholelithiasis): 20%
C[C@H](CCC(=O)O)[C@H]1CC[C@H]2[C@@H]3C(=O)C[C@@H]4CC(=O)CC[C@]4(C)[C@H]3CC(=O)[C@]12C [Dehydrogenized Cholanic acid, dehydrogenized cholanic acid] | 0.116 ± 0.04 ml(bile)/100 g · bw | 5.8 | 57.0 | 102.7 | 85.8 | 0.165 ± 0.08 ml(bile)/100 g · bw | 0.234 ± 0.07 ml(bile)/100 g · bw | 0.223 ± 0.05 ml(bile)/100 g · bw | 0.210 ± 0.07 ml(bile)/100 g · bw | 57.8 ± 12.8 | 15.4 ± 4.9 | 73.1 ± 14.1 | 43.4 ± 15.5 | 10.9 ± 11.2 | 54.3 ± 23.9 | 39.9 ± 10.2 | 8.16 ± 3.1 | 48.1 ± 14.8 | 45.7 ± 16.4 | 13.6 ± 5.69 | T-BIL in bile (bilirubin in bile; 4 h): 59.3 ± 19.7 mmol/L
COc1ccc2c(c1)c(CC(=O)O)c(C)n2C(=O)c1ccc(Cl)cc1 [Indothemacin, indomethacin] |  |  |  |  |  |  |  |  |  |  |  |  |  |  |  |  |  |  |  |  | inhibition rate of auricular swelling [3]: 74.0%; the auricular weight difference between left and right [3]: 3.98 ± 2.5 mg/100 g
CC(=O)OCC(=O)[C@@]1(O)CC[C@H]2[C@@H]3CCC4=CC(=O)C=C[C@]4(C)[C@H]3C(=O)C[C@@]21C [Prednisone acetate] |  |  |  |  |  |  |  |  |  |  |  |  |  |  |  |  |  |  |  |  | average granuloma coefficient (granuloma of rat): 0.20 ± 0.08; inhibition rate of granuloma coefficient (granuloma of rat): 69.2** %; size of ankle ([4]; 2 h after drug): 2.34 ± 0.17 cm; size of ankle ([4]; 4 h after drug): 2.10 ± 0.15 cm; size of ankle ([4]; 8 h after drug): 1.90 ± 0.19 cm; size of ankle ([4]; 16 h after drug): 2.10 ± 0.211 cm; size of ankle ([4]; 20 h after drug): 2.00 ± 0.009 cm
